Reference: the NIST ThermoML archive (doi:10.1016/j.fluid.2017.02.012)

Conditions: Liquid, Pendant drop shape

CCCCCCCCCCC [undecane] + O=C=O
Conditions | interfacial tension [mN/m]
313.15 K, 340 kPa | 22.19
313.15 K, 1410 kPa | 19.54
313.15 K, 2530 kPa | 16.91
313.15 K, 3590 kPa | 14.36
313.15 K, 4700 kPa | 11.15
313.15 K, 5630 kPa | 8.47
313.15 K, 6540 kPa | 5.82
313.15 K, 7100 kPa | 3.75
333.15 K, 350 kPa | 20.59
333.15 K, 1700 kPa | 17.96
333.15 K, 3240 kPa | 14.87
333.15 K, 4730 kPa | 12.15
333.15 K, 5810 kPa | 9.86
333.15 K, 7190 kPa | 7.45
333.15 K, 8000 kPa | 5.82
333.15 K, 8910 kPa | 4.12
353.15 K, 440 kPa | 18.64
353.15 K, 1800 kPa | 16.41
353.15 K, 3430 kPa | 14.14
353.15 K, 4930 kPa | 11.74
353.15 K, 6480 kPa | 9.53
353.15 K, 7890 kPa | 7.53
353.15 K, 8940 kPa | 5.99
353.15 K, 10190 kPa | 4.39
373.15 K, 410 kPa | 17.05
373.15 K, 1880 kPa | 15.22
373.15 K, 3100 kPa | 13.86
373.15 K, 4410 kPa | 12.26
373.15 K, 5910 kPa | 10.19
373.15 K, 7020 kPa | 8.84
373.15 K, 8600 kPa | 7.05
373.15 K, 9900 kPa | 5.73
373.15 K, 11680 kPa | 3.99
393.15 K, 530 kPa | 15.69
393.15 K, 3300 kPa | 12.38
393.15 K, 5820 kPa | 9.76
393.15 K, 9300 kPa | 6.53
393.15 K, 12810 kPa | 3.55

CCCCCCCCCCCCCCC [pentadecane] + O=C=O
Conditions | interfacial tension [mN/m]
313.15 K, 430 kPa | 21.65
313.15 K, 1100 kPa | 20.48
313.15 K, 2090 kPa | 18.38
313.15 K, 3090 kPa | 16.15
313.15 K, 4080 kPa | 14.04
313.15 K, 5090 kPa | 11.41
313.15 K, 6090 kPa | 8.91
313.15 K, 6890 kPa | 6.25
313.15 K, 8060 kPa | 2.69
333.15 K, 360 kPa | 20.84
333.15 K, 1380 kPa | 19.61
333.15 K, 2390 kPa | 17.57
333.15 K, 3490 kPa | 15.7
333.15 K, 4330 kPa | 14.41
333.15 K, 5290 kPa | 12.81
333.15 K, 5990 kPa | 11.75
333.15 K, 7290 kPa | 9.17
333.15 K, 8400 kPa | 6.86
333.15 K, 9860 kPa | 4.22
353.15 K, 580 kPa | 19.83
353.15 K, 1630 kPa | 18.11
353.15 K, 2790 kPa | 17.01
353.15 K, 3610 kPa | 15.63
353.15 K, 4630 kPa | 14.2
353.15 K, 5700 kPa | 12.85
353.15 K, 6630 kPa | 11.53
353.15 K, 7720 kPa | 9.79
353.15 K, 8560 kPa | 8.69
353.15 K, 9490 kPa | 7.32
353.15 K, 10730 kPa | 5.87
353.15 K, 11560 kPa | 4.82
353.15 K, 12000 kPa | 4.24
373.15 K, 1080 kPa | 18.21
373.15 K, 2060 kPa | 16.61
373.15 K, 3240 kPa | 15.25
373.15 K, 4280 kPa | 14.53
373.15 K, 5390 kPa | 13.01
373.15 K, 6240 kPa | 12.08
373.15 K, 7340 kPa | 10.81
373.15 K, 8340 kPa | 9.6
373.15 K, 9400 kPa | 8.42
373.15 K, 10490 kPa | 7.37
373.15 K, 12060 kPa | 5.74
373.15 K, 13190 kPa | 4.64
373.15 K, 13960 kPa | 4.06
393.15 K, 3280 kPa | 14.72
393.15 K, 5680 kPa | 12.36
393.15 K, 8600 kPa | 9.58
393.15 K, 11400 kPa | 6.86
393.15 K, 14720 kPa | 4.22

CCCCCCCCCCCCC [tridecane] + O=C=O
Conditions | interfacial tension [mN/m]
313.15 K, 550 kPa | 22.3
313.15 K, 2100 kPa | 18.58
313.15 K, 3240 kPa | 15.83
313.15 K, 4300 kPa | 13.06
313.15 K, 5300 kPa | 10.43
313.15 K, 5940 kPa | 8.57
313.15 K, 7490 kPa | 3.8
333.15 K, 330 kPa | 21.41
333.15 K, 1360 kPa | 19.62
333.15 K, 2440 kPa | 17.54
333.15 K, 3580 kPa | 15.34
333.15 K, 5410 kPa | 11.87
333.15 K, 5930 kPa | 10.74
333.15 K, 6830 kPa | 9.08
333.15 K, 8000 kPa | 6.91
333.15 K, 8780 kPa | 5.38
333.15 K, 9410 kPa | 4.25
333.15 K, 10010 kPa | 3.24
353.15 K, 440 kPa | 19.97
353.15 K, 1760 kPa | 17.82
353.15 K, 3190 kPa | 15.75
353.15 K, 4830 kPa | 13.15
353.15 K, 5700 kPa | 11.84
353.15 K, 6050 kPa | 11.5
353.15 K, 7500 kPa | 9.24
353.15 K, 8990 kPa | 7.3
353.15 K, 10030 kPa | 5.75
353.15 K, 10880 kPa | 4.76
353.15 K, 11770 kPa | 3.76
373.15 K, 540 kPa | 18.67
373.15 K, 2380 kPa | 16.03
373.15 K, 4400 kPa | 13.13
373.15 K, 5790 kPa | 11.68
373.15 K, 8100 kPa | 9.03
373.15 K, 9910 kPa | 6.93
373.15 K, 12260 kPa | 4.57
373.15 K, 13710 kPa | 3.32
393.15 K, 410 kPa | 17.04
393.15 K, 4630 kPa | 12.6
393.15 K, 8730 kPa | 8.27
393.15 K, 13580 kPa | 4.32

CCCCCCCCCCCCCCCCC [heptadecane] + O=C=O
Conditions | interfacial tension [mN/m]
313.15 K, 390 kPa | 25.11
313.15 K, 1300 kPa | 22.73
313.15 K, 2350 kPa | 20.26
313.15 K, 3500 kPa | 17.14
313.15 K, 5000 kPa | 13.27
313.15 K, 6500 kPa | 9.3
313.15 K, 8000 kPa | 5.34
313.15 K, 9000 kPa | 2.7
333.15 K, 750 kPa | 22.56
333.15 K, 1860 kPa | 20.55
333.15 K, 2830 kPa | 18.33
333.15 K, 3810 kPa | 16.6
333.15 K, 4850 kPa | 14.57
333.15 K, 5930 kPa | 12.56
333.15 K, 7090 kPa | 10.2
333.15 K, 8280 kPa | 8.07
333.15 K, 9630 kPa | 5.7
333.15 K, 10600 kPa | 4.26
353.15 K, 940 kPa | 19.98
353.15 K, 1910 kPa | 18.81
353.15 K, 3030 kPa | 17.6
353.15 K, 4000 kPa | 16.02
353.15 K, 5220 kPa | 14.29
353.15 K, 6110 kPa | 12.99
353.15 K, 7210 kPa | 11.23
353.15 K, 8580 kPa | 9.36
353.15 K, 9500 kPa | 8.34
353.15 K, 10740 kPa | 6.77
353.15 K, 12020 kPa | 5.27
353.15 K, 13180 kPa | 4.15
373.15 K, 920 kPa | 19.2
373.15 K, 2390 kPa | 17.81
373.15 K, 4000 kPa | 15.65
373.15 K, 5490 kPa | 13.83
373.15 K, 7260 kPa | 11.8
373.15 K, 9000 kPa | 9.93
373.15 K, 10800 kPa | 8.1
373.15 K, 12560 kPa | 6.21
373.15 K, 13470 kPa | 5.47
373.15 K, 14640 kPa | 4.43
393.15 K, 1190 kPa | 18.38
393.15 K, 4320 kPa | 14.69
393.15 K, 6780 kPa | 12.43
393.15 K, 10600 kPa | 8.46
393.15 K, 13920 kPa | 5.87

CCCCCCCCC [nonane] + O=C=O
Conditions | interfacial tension [mN/m]
313.15 K, 500 kPa | 20.26
313.15 K, 1490 kPa | 17.76
313.15 K, 2460 kPa | 15.19
313.15 K, 3500 kPa | 12.77
313.15 K, 4500 kPa | 10.11
313.15 K, 5490 kPa | 7.35
313.15 K, 6620 kPa | 4.28
313.15 K, 7290 kPa | 2.5
333.15 K, 390 kPa | 18.9
333.15 K, 1440 kPa | 16.61
333.15 K, 2400 kPa | 14.76
333.15 K, 3320 kPa | 12.98
333.15 K, 4460 kPa | 11.05
333.15 K, 5400 kPa | 9.01
333.15 K, 6220 kPa | 7.55
333.15 K, 7290 kPa | 5.61
333.15 K, 8230 kPa | 3.83
353.15 K, 1080 kPa | 16.12
353.15 K, 2100 kPa | 14.28
353.15 K, 3090 kPa | 12.81
353.15 K, 4130 kPa | 11
353.15 K, 5130 kPa | 9.64
353.15 K, 6030 kPa | 8.29
353.15 K, 6990 kPa | 6.95
353.15 K, 8000 kPa | 5.67
353.15 K, 9400 kPa | 3.85
373.15 K, 1060 kPa | 14.6
373.15 K, 2110 kPa | 13.15
373.15 K, 3060 kPa | 11.85
373.15 K, 4190 kPa | 10.43
373.15 K, 5200 kPa | 9.22
373.15 K, 6210 kPa | 7.93
373.15 K, 7000 kPa | 7.04
373.15 K, 7990 kPa | 6.08
373.15 K, 9340 kPa | 4.61
373.15 K, 10460 kPa | 3.58
393.15 K, 940 kPa | 13.32
393.15 K, 3080 kPa | 10.78
393.15 K, 5700 kPa | 8.17
393.15 K, 9300 kPa | 4.7
393.15 K, 11410 kPa | 2.98
